Data: ChEMBL document CHEMBL1201862, “PubChem BioAssay data set” (2004)
“And” between values parts separate entries of the source, which are not always exact repeats. Identical values can stand only once. The source made the active and inactive calls.

Assays:
[1] = molecular target: Cytochrome P450 2D6 (Homo sapiens, UniProt P10635);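 further: CYP2D6 member of a cytochrome P450 panel assay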
[2] = molecular target: T1, Cytochrome P450 3A4 (Homo sapiens, UniProt P08684);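 further: CYP3A4 tested as one member of a cytochrome P450 panel screen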
T1 sequence (P08684 whole entry): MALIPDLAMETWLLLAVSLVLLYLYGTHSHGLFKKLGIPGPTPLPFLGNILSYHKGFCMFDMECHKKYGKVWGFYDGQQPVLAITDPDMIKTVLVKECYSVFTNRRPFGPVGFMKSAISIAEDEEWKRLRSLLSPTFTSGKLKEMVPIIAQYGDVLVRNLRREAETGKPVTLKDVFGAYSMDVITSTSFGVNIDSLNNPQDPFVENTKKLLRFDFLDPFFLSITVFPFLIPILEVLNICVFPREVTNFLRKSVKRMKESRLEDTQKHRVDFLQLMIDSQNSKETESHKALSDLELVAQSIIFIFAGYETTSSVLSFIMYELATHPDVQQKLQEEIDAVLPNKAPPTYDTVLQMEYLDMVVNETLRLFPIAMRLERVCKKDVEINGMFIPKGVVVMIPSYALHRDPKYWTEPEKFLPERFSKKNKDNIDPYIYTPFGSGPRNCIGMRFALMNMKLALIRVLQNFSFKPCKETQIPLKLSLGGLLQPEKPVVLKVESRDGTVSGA

[3] = Luminescence Cell-Based Dose Response to Identify Activators of 5'UTR Stem-Loop Driven Prion Protein mRNA Translation in H4-C Neuroglioblastoma Cells. [Related pubchem assays: 1829 (Project Summary), 1814 (Primary HTS)]; format: functional
[4] = system: H4; experiment: Luminescence Cell-Based Dose Response HTS to Identify Activators of 5'UTR Stem-Loop Driven Prion Protein mRNA Translation in H4 Neuroglioblastoma Cells. [Related pubchem assays: 1829 (Project Summary), 1814 (Primary HTS)]; format: functional; conditions: Homo sapiens
[5] = Luminescence Cell-Based Dose Response to Identify Activators of Luciferase Translation or Activity in H4-C Neuroglioblastoma Cells. [Related pubchem assays: 1829 (Project Summary), 1814 (Primary HTS)]; format: functional
[6] = Luminescence Cell-Based Dose Confirmation to Identify Activators of 5'UTR Stem-Loop Driven Alpha-Synuclein mRNA Translation in H4 Neuroglioblastoma Cells. [Related pubchem assays: 1829 (Project Summary), 1814 (Primary HTS)]; format: functional
[7] = molecular target: T2, Short transient receptor potential channel 4 (Mus musculus, UniProt Q9QUQ5); experiment: mouse TRPC4 channel inhibitors, dose response, cell-based, HEK293 TRPC4/mu-opioid, Fluo-4 calcium (AID 434942); format: functional;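 further: potency of inhibitors blocking the TRPC4 calcium response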
T2 sequence (Q9QUQ5 whole entry): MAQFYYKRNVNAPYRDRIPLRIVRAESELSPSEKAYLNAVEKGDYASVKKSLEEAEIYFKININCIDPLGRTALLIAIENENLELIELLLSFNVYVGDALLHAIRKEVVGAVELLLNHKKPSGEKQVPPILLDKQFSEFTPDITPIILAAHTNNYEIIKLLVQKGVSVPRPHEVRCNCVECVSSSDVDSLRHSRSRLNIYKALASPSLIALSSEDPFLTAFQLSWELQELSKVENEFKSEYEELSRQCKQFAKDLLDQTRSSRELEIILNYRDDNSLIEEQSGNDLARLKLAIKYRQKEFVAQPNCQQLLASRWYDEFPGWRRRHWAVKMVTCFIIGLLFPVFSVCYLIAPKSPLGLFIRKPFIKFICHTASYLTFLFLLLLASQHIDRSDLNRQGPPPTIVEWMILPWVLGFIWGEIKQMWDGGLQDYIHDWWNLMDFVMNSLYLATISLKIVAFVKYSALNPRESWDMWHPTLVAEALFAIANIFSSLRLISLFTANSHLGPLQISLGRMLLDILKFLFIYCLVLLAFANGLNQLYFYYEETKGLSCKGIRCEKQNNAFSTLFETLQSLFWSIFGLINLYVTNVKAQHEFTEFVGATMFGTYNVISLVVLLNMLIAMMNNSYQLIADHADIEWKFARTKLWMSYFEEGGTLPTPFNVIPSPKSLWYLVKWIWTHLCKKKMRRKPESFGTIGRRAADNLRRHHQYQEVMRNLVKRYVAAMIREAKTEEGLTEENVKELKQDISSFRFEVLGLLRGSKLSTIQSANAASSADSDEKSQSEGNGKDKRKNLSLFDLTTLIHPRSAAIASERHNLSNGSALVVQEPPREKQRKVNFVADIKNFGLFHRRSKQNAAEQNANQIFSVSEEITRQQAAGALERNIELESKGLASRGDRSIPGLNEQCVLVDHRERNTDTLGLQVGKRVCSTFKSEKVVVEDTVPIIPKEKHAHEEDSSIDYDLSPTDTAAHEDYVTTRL

[8] = molecular target: T2, Short transient receptor potential channel 4; experiment: mouse TRPC4 channel activators, dose response, cell-based, HEK293 TRPC4/mu-opioid, Fluo-4 calcium (AID 434937); format: functional
[9] = molecular target: T3, Coagulation factor XII (Homo sapiens, UniProt P00748); format: functional;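 further: activated factor XIIa alpha cleaving a fluorogenic AMC peptide substrate; inhibitor potency from loss of enzyme activity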
T3 sequence (P00748 whole entry): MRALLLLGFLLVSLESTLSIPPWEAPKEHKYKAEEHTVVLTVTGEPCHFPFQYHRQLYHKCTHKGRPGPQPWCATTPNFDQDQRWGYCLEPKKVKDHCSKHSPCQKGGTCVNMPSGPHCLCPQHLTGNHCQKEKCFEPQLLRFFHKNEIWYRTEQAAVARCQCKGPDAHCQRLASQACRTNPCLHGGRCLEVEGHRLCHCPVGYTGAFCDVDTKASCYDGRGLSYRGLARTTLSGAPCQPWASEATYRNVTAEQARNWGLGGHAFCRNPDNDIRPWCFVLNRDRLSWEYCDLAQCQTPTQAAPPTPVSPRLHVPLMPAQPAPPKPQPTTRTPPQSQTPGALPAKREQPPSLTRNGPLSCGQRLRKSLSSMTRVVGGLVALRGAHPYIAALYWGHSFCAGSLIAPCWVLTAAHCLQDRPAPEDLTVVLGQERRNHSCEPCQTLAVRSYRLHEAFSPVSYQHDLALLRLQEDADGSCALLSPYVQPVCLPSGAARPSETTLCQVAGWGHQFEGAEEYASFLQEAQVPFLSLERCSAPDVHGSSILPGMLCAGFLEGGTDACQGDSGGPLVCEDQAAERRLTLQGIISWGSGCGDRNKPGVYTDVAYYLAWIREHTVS

[10] = molecular target: T4, Heat shock factor protein 1 (Mus musculus, UniProt P38532); experiment: HSF1 potentiators in luciferase reporter cells, confirmation, cell-based, NIH3T3, luminescence, dose retest (AID 435004); format: functional;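 further: stress induced by proteasome inhibitor MG132 added 30 min after compound; luciferase reporter driven by HSF1 response element in NIH3T3 cells; actives raise luminescence as potentiators of the MG132 stress response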
T4 sequence (P38532 whole entry): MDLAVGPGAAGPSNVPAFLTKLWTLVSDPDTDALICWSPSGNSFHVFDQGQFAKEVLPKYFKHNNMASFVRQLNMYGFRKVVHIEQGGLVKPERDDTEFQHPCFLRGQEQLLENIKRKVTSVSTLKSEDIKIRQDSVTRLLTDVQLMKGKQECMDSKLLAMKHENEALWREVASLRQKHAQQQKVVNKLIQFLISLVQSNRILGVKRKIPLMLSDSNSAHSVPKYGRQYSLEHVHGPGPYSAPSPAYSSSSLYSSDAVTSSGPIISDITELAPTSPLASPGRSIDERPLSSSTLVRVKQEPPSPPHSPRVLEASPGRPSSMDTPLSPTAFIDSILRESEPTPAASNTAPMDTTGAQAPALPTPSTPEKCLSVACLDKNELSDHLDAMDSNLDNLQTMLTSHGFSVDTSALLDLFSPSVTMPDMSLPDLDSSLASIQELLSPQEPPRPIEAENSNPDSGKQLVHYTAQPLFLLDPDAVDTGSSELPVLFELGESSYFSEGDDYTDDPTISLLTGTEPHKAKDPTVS

[11] = Luminescence Cell-Based Dose Response HTS to Identify Activators of Luciferase Translation or Activity in H4 […] Cells. [Related pubchem assays: 1829 (Project Summary), 1814 (Primary HTS)]; format: functional
[12] = system: Jurkat; experiment: antigen receptor-induced NF-kB inhibitors, dose response, Jurkat, luciferase reporter, luminescence, B- and T-cell (AID 489004); format: functional, cell-based; conditions: Homo sapiens;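 further: NF-kB luciferase reporter Jurkat cells stimulated with PMA plus ionomycin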
[13] = cytotoxicity in HEK-293T NF-kB-Luc cells, dose response, cytotoxicity control for B/T-cell NF-kB inhibitor project, cell-based, uHTS hits (AID 489019); format: functional;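 further: IC50 reflects cytotoxicity as loss of cell viability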
[14] = molecular target: T5, Cytochrome P450 1A2 (Homo sapiens, UniProt P05177);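 further: PubChem cytochrome P450 panel assay, CYP1A2 panel member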
T5 sequence (P05177 whole entry): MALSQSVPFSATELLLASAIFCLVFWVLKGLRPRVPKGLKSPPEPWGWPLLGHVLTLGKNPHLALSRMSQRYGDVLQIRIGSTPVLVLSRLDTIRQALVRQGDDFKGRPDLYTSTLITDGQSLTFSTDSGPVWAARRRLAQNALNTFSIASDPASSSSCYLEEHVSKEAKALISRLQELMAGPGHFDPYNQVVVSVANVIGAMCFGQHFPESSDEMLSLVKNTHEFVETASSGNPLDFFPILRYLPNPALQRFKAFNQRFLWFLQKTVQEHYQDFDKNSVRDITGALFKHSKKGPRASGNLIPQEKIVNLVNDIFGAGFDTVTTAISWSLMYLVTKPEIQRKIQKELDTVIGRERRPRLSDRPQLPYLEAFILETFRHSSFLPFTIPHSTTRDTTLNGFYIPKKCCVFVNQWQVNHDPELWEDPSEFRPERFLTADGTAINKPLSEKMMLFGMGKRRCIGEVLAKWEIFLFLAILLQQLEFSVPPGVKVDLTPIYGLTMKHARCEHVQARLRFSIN

[15] = molecular target: T6, Cytochrome P450 2C9 (Homo sapiens, UniProt P11712)
T6 sequence (P11712 whole entry): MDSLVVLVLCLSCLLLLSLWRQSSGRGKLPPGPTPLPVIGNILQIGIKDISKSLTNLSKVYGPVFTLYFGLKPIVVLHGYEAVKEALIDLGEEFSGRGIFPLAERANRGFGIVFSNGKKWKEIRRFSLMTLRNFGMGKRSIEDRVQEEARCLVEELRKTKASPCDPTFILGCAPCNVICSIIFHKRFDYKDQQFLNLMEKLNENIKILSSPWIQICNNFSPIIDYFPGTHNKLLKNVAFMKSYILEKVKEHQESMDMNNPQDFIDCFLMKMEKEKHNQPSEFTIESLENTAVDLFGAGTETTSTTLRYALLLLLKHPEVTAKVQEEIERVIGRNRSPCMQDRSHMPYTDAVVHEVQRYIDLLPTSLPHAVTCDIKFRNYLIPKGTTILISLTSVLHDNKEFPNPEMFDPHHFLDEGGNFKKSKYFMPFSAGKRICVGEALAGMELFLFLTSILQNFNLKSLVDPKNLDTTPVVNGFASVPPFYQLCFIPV

[16] = molecular target: Luciferin 4-monooxygenase (Photinus pyralis, UniProt P08659); experiment: firefly luciferase enzyme inhibitors, dose response, biochemical, luminescence (AID 1891)
Sequence of Luciferin 4-monooxygenase (P08659 whole entry): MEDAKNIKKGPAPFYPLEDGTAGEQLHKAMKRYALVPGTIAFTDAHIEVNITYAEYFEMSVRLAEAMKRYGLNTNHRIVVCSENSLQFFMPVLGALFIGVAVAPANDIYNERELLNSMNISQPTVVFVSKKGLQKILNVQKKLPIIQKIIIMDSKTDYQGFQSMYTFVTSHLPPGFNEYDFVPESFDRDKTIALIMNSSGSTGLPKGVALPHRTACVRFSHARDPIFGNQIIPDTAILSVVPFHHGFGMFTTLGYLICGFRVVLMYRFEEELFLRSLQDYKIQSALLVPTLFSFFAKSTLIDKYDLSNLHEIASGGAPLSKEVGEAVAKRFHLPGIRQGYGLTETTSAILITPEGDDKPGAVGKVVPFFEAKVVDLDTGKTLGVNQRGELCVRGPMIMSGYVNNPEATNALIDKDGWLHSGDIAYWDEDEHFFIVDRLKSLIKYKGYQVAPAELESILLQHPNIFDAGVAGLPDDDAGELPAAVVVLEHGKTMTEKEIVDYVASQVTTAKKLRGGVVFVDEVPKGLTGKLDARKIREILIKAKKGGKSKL

[17] = Luminescence Cell-Based Dose Confirmation HTS to Identify Inhibitors of Platelet Dense Granule Release. [Related pubchem assays: 1663 (Primary HTS), 1678 (Summary of Project)]; format: functional
[18] = molecular target: Cytochrome P450 2C19 (Homo sapiens, UniProt P33261); experiment: Cytochrome panel assay with activity outcomes. Panel member name: p450-cyp2c19 Compounds with AC50 equal or less than 10 uM are considered active; format: functional; conditions: read-out: AC50
Sequence of Cytochrome P450 2C19 (P33261 whole entry): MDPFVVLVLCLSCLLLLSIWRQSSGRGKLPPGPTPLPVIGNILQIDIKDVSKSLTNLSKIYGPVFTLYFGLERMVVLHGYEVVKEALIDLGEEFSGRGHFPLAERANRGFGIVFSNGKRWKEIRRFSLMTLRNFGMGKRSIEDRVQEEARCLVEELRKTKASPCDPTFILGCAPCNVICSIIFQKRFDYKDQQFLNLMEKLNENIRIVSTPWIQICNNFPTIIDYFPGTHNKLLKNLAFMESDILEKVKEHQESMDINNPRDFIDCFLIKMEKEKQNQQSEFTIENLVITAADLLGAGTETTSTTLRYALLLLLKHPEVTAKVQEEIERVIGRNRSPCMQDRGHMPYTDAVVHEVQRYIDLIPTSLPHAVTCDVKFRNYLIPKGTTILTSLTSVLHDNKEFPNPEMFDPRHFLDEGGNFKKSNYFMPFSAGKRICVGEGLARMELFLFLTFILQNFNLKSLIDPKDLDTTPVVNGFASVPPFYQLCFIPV

[19] = Luminescence Cell-Based Dose Confirmation HTS to Identify Activators of 5'UTR Stem-Loop Driven Alpha-Synuclein mRNA Translation in H4 Neuroglioblastoma Cells. [Related pubchem assays: 1829 (Project Summary), 1814 (Primary HTS)]; format: functional
[20] = molecular target: T1, Cytochrome P450 3A4; remark: listed apart in the source
[21] = THP-1 cell cytotoxicity, dose response, cytotoxicity control for non-replicating M. tuberculosis project (AID 489025); format: functional
[22] = cells; format: functional
[23] = Luminescence Cell-Based Dose Retest to Confirm Inhibitors of Cancer Stem Cells. [Related pubchem assays (depositor defined):AID2717, AID2721]; format: functional; conditions: Homo sapiens
[24] = molecular target: T6, Cytochrome P450 2C9; remark: listed apart in the source

Sequence of Cytochrome P450 2D6 (P10635 whole entry): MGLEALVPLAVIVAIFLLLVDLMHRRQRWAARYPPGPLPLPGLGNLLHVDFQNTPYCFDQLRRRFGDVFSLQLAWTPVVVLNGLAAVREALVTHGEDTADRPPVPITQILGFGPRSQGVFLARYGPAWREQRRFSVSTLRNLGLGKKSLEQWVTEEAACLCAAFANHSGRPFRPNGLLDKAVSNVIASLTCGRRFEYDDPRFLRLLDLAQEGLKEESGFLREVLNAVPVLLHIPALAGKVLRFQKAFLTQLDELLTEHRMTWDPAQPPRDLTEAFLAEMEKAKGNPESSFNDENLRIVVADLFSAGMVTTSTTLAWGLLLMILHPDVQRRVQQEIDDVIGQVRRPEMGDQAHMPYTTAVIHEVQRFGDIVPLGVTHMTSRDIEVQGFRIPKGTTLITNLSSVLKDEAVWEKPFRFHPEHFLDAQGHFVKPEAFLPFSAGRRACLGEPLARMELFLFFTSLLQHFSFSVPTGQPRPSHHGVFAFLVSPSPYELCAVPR

COc1cc2c(cc1OC)[C@H](c1ccccc1)CN(C)CC2
AC50 [1]: 31.6 µM (inconclusive) | AC50 [2]: inconclusive

O=C(Nc1ccccc1)N1CC=C(c2ccccc2)CC1
EC50 [3]: 376 nM (active) | EC50 [4]: < 100 nM (active) | EC50 [5]: 237 nM (active) | EC50 [6]: 272 nM (active)

O=C(c1cnccn1)N1CCC2(CC1)CCN(c1ccccn1)CC2
AC50 [2]: inconclusive

COc1ccc(CCN(C)CCN2C(=O)c3ccccc3C2=O)cc1OC
EC50 [7]: 1880 nM (active) | EC50 [8]: 1060 nM (active)

CN(NC1OC(=O)c2ccccc21)c1ncc(Cl)cc1C(F)(F)F (centres undefined)
IC50 [9]: > 50000 nM (inactive) | EC50 [10]: > 260000 nM (inactive)

CNC(=O)c1ccc(N(Cc2ccccc2)S(C)(=O)=O)cc1
IC50 [9]: > 50000 nM (inactive)

O=C(Nc1nccs1)c1c(O)nc2c(c1O)CCCC2
EC50 [3]: 504 nM (active) | EC50 [11]: 999 nM (active) | EC50 [4]: < 100 nM (active) | EC50 [5]: 446 nM (active) | EC50 [6]: 475 nM (active)

Cc1cc(=O)n2c(n1)SCOC2
IC50 [9]: > 50000 nM (inactive)

COC(=O)Cc1c(C)nc2ncnn2c1O
IC50 [9]: > 50000 nM (inactive)

COc1ccc(OC)c(C2C3=C(O)OCC3=Nc3cc4c(cc32)OCO4)c1 (centres undefined)
IC50 [12]: > 80000 nM (inactive) | IC50 [13]: > 80000 nM (inactive) | AC50 [1]: 22.4 µM (inconclusive) | AC50 [14]: 10000 nM (inconclusive) | AC50 [15]: 7940 nM (inconclusive)

Cc1ccc(C(=O)ONc2ccc(N=O)cc2)cc1
EC50 [16]: < 88 nM (active) | EC50 [17]: 2690 nM (active) | IC50 [9]: 29800 nM (active)

CCOC(=O)c1ccc(N2C(=O)CC(Nc3ccc(CCO)cc3)C2=O)cc1 (centres undefined)
AC50 [18]: 8910 nM (inconclusive) | AC50 [15]: 6310 nM (inconclusive) | AC50 [2]: inconclusive

c1csc(-c2nc(N3CCCCC3)no2)c1
EC50 [3]: 380 nM (active) | EC50 [19]: < 100 nM (active) | EC50 [11]: < 100 nM (active) | EC50 [4]: 1220 nM (active) | EC50 [5]: 360 nM (active) | EC50 [6]: 290 nM (active)

N=C(N)NC(=N)Nc1cccc(Cl)c1
AC50 [1]: 25.1 µM (inconclusive) and 39.8 µM (inconclusive) | AC50 [20]: 79400 nM (inconclusive) | AC50 [2]: inconclusive

CCCCNc1nc2ccccc2[nH]1
EC50 [7]: 2990 nM (active)

O=C(CCc1ccc(Oc2cc([N+](=O)[O-])cc([N+](=O)[O-])c2)cc1)N1CCCCC1
CC50 [21]: > 40000 nM (active) | IC50 [22]: 11400 nM (active)

CC(=O)O[C@H]1[C@H]2O[C@]23[C@@H]2CC[C@]4(O)C[C@@H](O)CC[C@]4(C)[C@H]2CC[C@]3(C)[C@H]1c1ccc(=O)oc1 [CINOBUFOTALIN]
AC50 [23]: < 160 nM (active) | IC50 [12]: 3190 nM (active) | IC50 [13]: > 80000 nM (inactive)

O=C(C1CCN(CC2CC=CCC2)CC1)N(CCc1ccccc1)Cc1ccccc1 (centres undefined)
EC50 [7]: 2660 nM (active)

COCCn1c(SCC(=O)c2ccccc2)nc2ccccc2c1=O
EC50 [7]: 376 nM (active)

OC1(c2ccc(Cl)cc2)CCN(Cc2c[nH]c3ccccc23)CC1
AC50 [2]: inconclusive | AC50 [24]: inconclusive
